This note sets out measurements from patent publication US20260109721A1, “IONIZABLE CATIONIC LIPIDS INCORPORATING SILICON: SYNTHESIS AND LNP FORMULATION” (priority 2023, published 2026).

Series [1] is described as follows: Encapsulation efficiency of loaded LNPs, RiboGreen RNA assay (Method A). The class given is physicochemical. As to conditions: encapsulation efficiency of mRNA-loaded LNP, Method A, RiboGreen. The procedure: (§1) The synthesized lipids were tested in term of in vitro transfection efficacy and toxicity on HeLa cells. In order to perform the mentioned biological tests, appropriate LNPs had to be formulated from the synthesized lipids. The formulation technique was different in Method A and B. The particle size, polydispersity index (PDI) and zeta potential of resulting LNPs were determined by means of Dynamic Light Scattering technique (DLS). Prior to biological testing the encapsulation efficiency (EE) of the loaded LNPs was determined by using RiboGreen RNA assay. In case of Method A Luc mRNA while in case of Method B GFP mRNA was transfected into the cells. In parallel with the transfection experiments, toxicity of the investigated LNPs was determined, in case of Method A resazurin assay while in case of Method B MTT assay was used. Additionally, the toxicity of the lipids was investigated on HepG2 cells and IC50 values were determined.
• 1. Preparation of sample stock solutions: In the top row of the 96-well plate (Row A in the plate), add 297 μL of TE buffer pH 7.4 (see Table 1) to a single well for each sample plus a single well for a PBS blank using a multichannel pipette.
• 2. Add 3 μL of sample (at 0.5 mg/ml) to these wells for a final volume of 300 μL. Add 3 μL of PBS to the blank well. Pipette to mix. This is your stock solution for each sample. The final RNA concentration of these stock solutions should be approximately 4-7 μg/mL. • 3. mRNA-LNP sample setup: • a. Add 50 μL of TE buffer pH 7.5 to the two wells directly below each sample (Rows B and C in the plate). • b. Add 50 μL of sample stock solution from Row A into the wells in Rows B and C (this assay is run in duplicate. All liquid handling should be done using a multichannel pipette). • c. Add 50 μL of Triton buffer to the wells in Rows D and E (in the plate) below each sample. • d. Add 50 μL of sample stock solution from Row A into the wells in Rows D and E. • 4. RiboGreen RNA standard curve setup: Dilute the RNA standard to produce an RNA stock at a final concentration of 20 μg/mL in TE buffer pH 7.4. The final volume should be 150 μL. Set up a standard curve (in duplicate) as using the RNA stock (20 μg/mL siRNA), TE buffer pH 7.5, and Triton X-100 buffer according the Table 2 and Table 3 below.
• 5. Once samples and standard curve are plated, incubate the plate at 37° C. for 10 min to lyse mRNA-LNP in the presence of Triton X-100 buffer. • 6. Meanwhile, prepare RiboGreen Solution: Sum the total number of sample wells and standard curve wells. Add three to this number, and multiply the total by 100. This is the total volume, in μL, of RiboGreen Solution needed for this assay. In a 15 mL RNAse-free Falcon tube, dilute the RiboGreen Reagent 1:100 into TE buffer pH 7.5 to the total volume calculated. • 7. Addition of RiboGreen Solution and sample readings: Remove a 96-well plate from 37° C. incubator; let it cool to room temperature as RiboGreen binding is somewhat temperature dependent. Add 100 μL of RiboGreen Solution to each well. Pop any air bubbles with a needle. Read using fluorescent plate reader (excitation=480, emission=525). • 8. Sample analysis: Use the data generated by the RiboGreen standard curve to calculate the concentration of mRNA. Transfection Efficiency with Luciferase-mRNA (Method A)

Series [2] is described as follows: LNP size, PDI and zeta potential by Dynamic Light Scattering (Method A). The class given is physicochemical. Conditions: LNP formulated with the lipid, DLS. The procedure: as §1
• 1. If needed, prepare stock solutions by solving known amounts of lipid powder into an appropriate solvent. The recommended solvent is ethanol and the recommended concentration is typically in the range 10-50 mM. Higher concentrations are preferred to allow flexibility on mRNA-LNP concentration. • 2. Remove the lipid stock solutions from the −20° C. freezer. For long-term storage, −80° C. is used. • 3. Check the vials for precipitation, DOPE (CAS #4004-05-1) (20 mM) and DSPE-PEG (CAS #474922-26-4) (5 mM) may need a 5-30 minute incubation step at 37° C. with intermittent vortexing to resuspend all contents. […] As a last resort, lipids may be heated to 50° C. to resuspend, time should be kept as short as possible to prevent oxidation or other modifying or degradative processes. • 4. Mix the lipids by vortexing for 2 minutes. • 5. […] Cooling the solution prevent excessive evaporation of ethanol or similar solvents upon opening. • 6. Meanwhile, thaw the RNA samples, including the latest SecNLuc control, by inserting the frozen tube in a room temperature aluminium block. • 7. Prepare for each LNP-formulation with identical mRNA component, an RNA master mix according to Table 1 below in a fresh tube. Use of a master mix allows more precise comparison of lipid formulations relative to each other. Split the master mix over a number of fresh tubes equal to the number of samples+controls. Each tube contains 375 μl of mRNA in 10 mM Citrate pH 4.0. • 8. Prepare for each LNP formulation with identical lipid composition a Lipid master mix according to Table 1 below in a fresh tube, exclude the lipid of interest. Use of a master mix allows more precise comparison of the novel ionizable lipid relative to each other. Split the master mix over a number of fresh tubes equal to the number of samples+controls. Each tube contains 65.5 μl of lipid master mix. • 9. Add the ionizable lipid of interest to the equally divide lipid master mix. Mix well by pipetting up and down. Label the tube according to the ionizable lipid used. • 10. Power on the L1 FM (L1 Formulation Machine uses 2 high-speed syringe pumps to mix lipids in organic solvents with mRNA in acidic aquous solution to generate well-defined LNPs. The microfluidic mixing chip involves a dean-type structure performing the high-efficiency mixing at a total flow rate (TFR) of around 12 ml/min at a 3:1 mixing ratio) and allow it to do a calibration of motor positions.
• 18. Fill a fresh syringe (C) through a blunt 18G stainless steel needle with the previously prepared RNA mixture of step 6. The volume should be approximately 85% of total formulation volume+25 μl (dead-volume). Make sure to remove all air bubbles by tapping. • 19. Fill a fresh syringe (D) through a blunt 18G stainless steel needle with the Lipid master mix. The volume should be approximately […] of total formulation volume+25 μl (dead-volume). Again, Make sure to remove all bubbles. • 20. Attach the syringes in the correct orientation, syringe A on the left and syringe B on the right • 21.

Consider `CCCCC/C=C\C/C=C\CCCCCCCCOC(CCCCCCC/C=C\C/C=C\CCCCC)O[Si](C)(C)OCCCCCCN(C)CC(O)CO` (stereo not shown) [Example 59, (24Z,27Z)-14-((8Z,11Z)-heptadeca-8,11-dien-1-yl)-4,12,12-trimethyl-11,13,15-trioxa-4-aza-12-silatritriaconta-24,27-diene-1,2-diol], for which, in series [1], the “EE (%)” value amounted to 88%. In series [2], the PDI is recorded as 0.105, the “Size (nm)” value was determined as 112.8 nm and the “Zeta potential (mV)” value was −8.941 mV.

Regarding `CCCCC/C=C\C/C=C\CCCCCCCCOC(CCCCCCC/C=C\C/C=C\CCCCC)O[Si](C)(C)OCCCCCCN(C)CCCCO` (stereo not shown) [Example 60, (25Z,28Z)-15-((8Z,11Z)-heptadeca-8,11-dien-1-yl)-5,13,13-trimethyl-12,14,16-trioxa-5-aza-13-silatetratriaconta-25,28-dien-1-ol], the “EE (%)” value in series [1] came out at 84%. In series [2], the PDI stood at 0.041, the “Size (nm)” value amounted to 201.0 nm and the “Zeta potential (mV)” value was −7.785 mV.

Consider `CCCCC/C=C\C/C=C\CCCCCCCCOC(CCCCCCC/C=C\C/C=C\CCCCC)O[Si](C)(C)OCCCCCCN(CCCCO)CCCCO` (stereo not shown) [Example 62, (25Z,28Z)-15-((8Z,11Z)-heptadeca-8,11-dien-1-yl)-5-(4-hydroxybutyl)-13,13-dimethyl-12,14,16-trioxa-5-aza-13-silatetratriaconta-25,28-dien-1-ol], for which the “EE (%)” value in series [1] turned out to be 84%. In addition, in series [2], the PDI worked out at 0.13, the “Size (nm)” value was found to be 236.8 nm and the “Zeta potential (mV)” value is −10.74 mV.

On to `CCCCC/C=C\C/C=C\CCCCCCCCOC(CCCCCCC/C=C\C/C=C\CCCCC)O[Si](C)(C)OCCCCCCN1CCCCC1CO` (stereo not shown) [Example 64, (1-((20Z,23Z)-10-((8Z,11Z)-heptadeca-8,11-dien-1-yl)-8,8-dimethyl-7,9,11-trioxa-8-silanonacosa-20,23-dien-1-yl)piperidin-2-yl)methanol], for which the “EE (%)” value in series [1] is reported as 85%. Besides, in series [2], the PDI was found to be 0.098, the “Size (nm)” value is reported as 293.7 nm and the “Zeta potential (mV)” value is given as −9.226 mV.

On to `CCCCC/C=C\C/C=C\CCCCCCCCOC(CCCCCN(C)CC(O)CO)O[Si](C)(C)OCCCCCCCC/C=C\C/C=C\CCCCC` (stereo not shown) [Example 66, (22Z,25Z)-4,12,12-trimethyl-10-(((9Z,12Z)-octadeca-9,12-dien-1-yl)oxy)-11,13-dioxa-4-aza-12-silahentriaconta-22,25-diene-1,2-diol], for which the “EE (%)” value in series [1] is given as 82%. Besides, in series [2], the PDI came out at 0.043, the “Size (nm)” value came to 223.6 nm and the “Zeta potential (mV)” value is reported as −11.66 mV.

For `C#CCN(C)CCCCCCO[Si](C)(C)OC(CCCCCCC/C=C\C/C=C\CCCCC)OCCCCCCCC/C=C\C/C=C\CCCCC` (stereo not shown) [Example 67, (20Z,23Z)-10-((8Z,11Z)-heptadeca-8,11-dien-1-yl)-N,8,8-trimethyl-N-(prop-2-yn-1-yl)-7,9,11-trioxa-8-silanonacosa-20,23-dien-1-amine], in series [1], the “EE (%)” value came to 88%. Also, in series [2], the PDI came out at 0.058, the “Size (nm)” value is 127.2 nm and the “Zeta potential (mV)” value is −8.62 mV.

Take `CCCCC/C=C\C/C=C\CCCCCCCCOC(CCCCCCC/C=C\C/C=C\CCCCC)O[Si](C)(C)OCCCCCCN(C)Cc1cn(C2[C@H](O)O[C@H](CO)[C@@H](O)[C@@H]2O)nn1` (stereo partly drawn) [Example 68, (4R,5S,6R)-3-(4-((22Z,25Z)-12-((8Z,11Z)-heptadeca-8,11-dien-1-yl)-2,10,10-trimethyl-9,11,13-trioxa-2-aza-10-silahentriaconta-22,25-dien-1-yl)-1H-1,2,3-triazol-1-yl)-6-(hydroxymethyl)tetrahydro-2H-pyran-2,4,5-triol]: the “EE (%)” value in series [1] is reported as 88%. Moreover, in series [2], the PDI was 0.081, the “Size (nm)” value amounted to 109.9 nm and the “Zeta potential (mV)” value is given as −6.380 mV.

Take `CCCCC/C=C\C/C=C\CCCCCCCCOC(CCCCCCC/C=C\C/C=C\CCCCC)O[Si](C)(C)OCCCCCCN1CCN(CCCCCCO[Si](C)(C)OC(CCCCCCC/C=C\C/C=C\CCCCC)OCCCCCCCC/C=C\C/C=C\CCCCC)CC1` (stereo not shown) [Example 70, 1,4-bis((20Z,23Z)-10-((8Z,11Z)-heptadeca-8,11-dien-1-yl)-8,8-dimethyl-7,9,11-trioxa-8-silanonacosa-20,23-dien-1-yl)piperazine]: the “EE (%)” value in series [1] came out at 81%. In series [2], the PDI turned out to be 0.061, the “Size (nm)” value is reported as 171.4 nm and the “Zeta potential (mV)” value is listed as −10.47 mV.

Turning to `CCCCC/C=C\C/C=C\CCCCCCCCOC(CCCCCCC/C=C\C/C=C\CCCCC)O[Si](C)(C)OCCCCCCN(CCO)CCN(CCO)CCCCCCO[Si](C)(C)OC(CCCCCCC/C=C\C/C=C\CCCCC)OCCCCCCCC/C=C\C/C=C\CCCCC` (stereo not shown) [Example 71, (26Z,29Z)-16-((8Z,11Z)-heptadeca-8,11-dien-1-yl)-3-((20Z,23Z)-10-((8Z,11Z)-heptadeca-8,11-dien-1-yl)-8,8-dimethyl-7,9,11-trioxa-8-silanonacosa-20,23-dien-1-yl)-6-(2-hydroxyethyl)-14,14-dimethyl-13,15,17-trioxa-3,6-diaza-14-silapentatriaconta-26,29-dien-1-ol], the “EE (%)” value in series [1] is 84%. In addition, in series [2], the PDI came to 0.103, the “Size (nm)” value was determined as 166.6 nm and the “Zeta potential (mV)” value is listed as −11.09 mV.

Consider `CCCCCCCC/C=C\CCCCCCCC(OCC(CCCCCCCC)SCCCCC)O[Si](C)(C)OCCCCCCN(CCO)CCO` (stereo not shown) [Example 72, (Z)-13-(heptadec-8-en-1-yl)-3-(2-hydroxyethyl)-11,11-dimethyl-16-octyl-10,12,14-trioxa-17-thia-3-aza-11-siladocosan-1-ol], for which the “EE (%)” value in series [1] was found to be 87%. Further, in series [2], the PDI worked out at 0.17, the “Size (nm)” value amounted to 84.37 nm and the “Zeta potential (mV)” value is listed as −14.24 mV.
